# In ChEMBL document CHEMBL3826948, “Alkyl substituted aminal derivatives of HCV NS5A inhibitor MK-8742” (Bioorg Med Chem Lett, 2016):
# How the values were obtained:
# Conditions in all cases: Hepatitis C virus
# [1] = Inhibition of NS5A in HCV genotype 1a assessed as replicon RNA levels by real time PCR based cell based assay; design: species or system Hepatitis C virus subtype 1a
# [2] = Inhibition of NS5A in HCV genotype 1b assessed as replicon RNA levels by real time PCR based cell based assay; design: species or system Hepatitis C virus subtype 1b
# [3] = Inhibition of NS5A in HCV genotype 2a assessed as replicon RNA levels by real time PCR based cell based assay; design: species or system Hepatitis C virus subtype 2a
# [4] = Inhibition of NS5A in HCV genotype 2b assessed as replicon RNA levels by real time PCR based cell based assay; design: species or system Hepatitis C virus subtype 2b
# [5] = Inhibition of NS5A in HCV genotype 3a assessed as replicon RNA levels by real time PCR based cell based assay; design: species or system Hepatitis C virus subtype 3a
# [6] = Inhibition of NS5A in HCV genotype 4a assessed as replicon RNA levels by real time PCR based cell based assay; design: species or system Hepatitis C virus subtype 4a
Structure (SMILES),EC50 [1],EC50 [2],EC50 [3],EC50 [4],EC50 [5],EC50 [6]
COC(=O)N[C@H](C(=O)N1CCC[C@H]1c1ncc(-c2ccc3c(c2)cc2n3C3(CCCCC3)Oc3cc(-c4cnc([C@@H]5C[C@@H](F)CN5C(=O)[C@@H](NC(=O)OC)C(C)C)[nH]4)cc(F)c3-2)[nH]1)C(C)C,0.008 nM,0.001 nM,0.2 nM,95 nM,6 nM,0.2 nM
CNC(=O)C1CC1C1Oc2cc(-c3cnc([C@@H]4CCCN4C(=O)[C@@H](NC(=O)OC)C(C)C)[nH]3)cc(F)c2-c2cc3cc(-c4cnc([C@@H]5CCCN5C(=O)[C@@H](NC(=O)OC)C(C)C)[nH]4)ccc3n21 (stereo partly drawn),1 nM,–,–,52 nM,10 nM,–
COC(=O)N[C@H](C(=O)N1CCC[C@H]1c1ncc(-c2ccc3c(c2)OC(CCC#N)n2c-3cc3cc(-c4cnc([C@@H]5CCCN5C(=O)[C@@H](NC(=O)OC)C(C)C)[nH]4)ccc32)[nH]1)C(C)C (mixture of isomers),0.03 nM,–,–,8 nM,1 nM,–
COC(=O)N[C@H](C(=O)N1CCC[C@H]1c1ncc(-c2cc(F)c3c(c2)OC(C2CC2C(=O)O)n2c-3cc3cc(-c4cnc([C@@H]5CCCN5C(=O)[C@@H](NC(=O)OC)C(C)C)[nH]4)ccc32)[nH]1)C(C)C (stereo partly drawn),8 nM,–,–,525 nM,202 nM,–
COC(=O)N[C@H](C(=O)N1CCC[C@H]1c1ncc(-c2ccc3c(c2)OC(C2CCC4(CC2)CC4)n2c-3cc3cc(-c4cnc([C@@H]5CCCN5C(=O)[C@@H](NC(=O)OC)C(C)C)[nH]4)ccc32)[nH]1)C(C)C (stereo partly drawn),< 0.02 nM,0.02 nM,< 0.2 nM,2 nM,0.6 nM,< 0.2 nM
COC(=O)N[C@H](C(=O)N1CCC[C@H]1c1ncc(-c2ccc3c(c2)OC(C2CCC2)n2c-3cc3cc(-c4cnc([C@@H]5CCCN5C(=O)[C@@H](NC(=O)OC)C(C)C)[nH]4)ccc32)[nH]1)C(C)C (mixture of isomers),0.008 nM,0.005 nM,0.006 nM,9 nM,1 nM,0.06 nM
CCCCCC1CC2CCC1CC2C1Oc2cc(-c3cnc([C@@H]4CCCN4C(=O)[C@@H](NC(=O)OC)C(C)C)[nH]3)ccc2-c2cc3cc(-c4cnc([C@@H]5CCCN5C(=O)[C@@H](NC(=O)OC)C(C)C)[nH]4)ccc3n21 (mixture of isomers),0.02 nM,–,–,2 nM,> 17 nM,–
COC(=O)N[C@H](C(=O)N1CCC[C@H]1c1ncc(-c2cc(F)c3c(c2)OC(C2CC2C(=O)N(C)C)n2c-3cc3cc(-c4cnc([C@@H]5CCCN5C(=O)[C@@H](NC(=O)OC)C(C)C)[nH]4)ccc32)[nH]1)C(C)C (stereo partly drawn),0.1 nM,–,–,9 nM,4 nM,–
COC(=O)N[C@H](C(=O)N1CCC[C@H]1c1ncc(-c2cc(F)c3c(c2)OC(C2CC2C)n2c-3cc3cc(-c4cnc([C@@H]5CCCN5C(=O)[C@@H](NC(=O)OC)C(C)C)[nH]4)ccc32)[nH]1)C(C)C (stereo partly drawn),0.006 nM,–,–,2 nM,0.09 nM,–
COC(=O)N[C@H](C(=O)N1CCC[C@H]1c1ncc(-c2ccc3c(c2)OC(C2CCOCC2)n2c-3cc3cc(-c4cnc([C@@H]5CCCN5C(=O)[C@@H](NC(=O)OC)C(C)C)[nH]4)ccc32)[nH]1)C(C)C (mixture of isomers),0.009 nM,0.004 nM,0.03 nM,–,0.8 nM,0.04 nM
COC(=O)N[C@H](C(=O)N1CCC[C@H]1c1ncc(-c2cc(F)c3c(c2)OC(C2CC24CCCC4)n2c-3cc3cc(-c4cnc([C@@H]5CCCN5C(=O)[C@@H](NC(=O)OC)C(C)C)[nH]4)ccc32)[nH]1)C(C)C (stereo partly drawn),0.006 nM,–,–,> 17 nM,> 17 nM,–
COC(=O)N[C@H](C(=O)N1CCC[C@H]1c1ncc(-c2ccc3c(c2)OC(CCC(=O)O)n2c-3cc3cc(-c4cnc([C@@H]5CCCN5C(=O)[C@@H](NC(=O)OC)C(C)C)[nH]4)ccc32)[nH]1)C(C)C (mixture of isomers),8 nM,–,–,124 nM,33 nM,–
COC(=O)N[C@H](C(=O)N1CCC[C@H]1c1ncc(-c2ccc3c(c2)OC(CC(F)(F)F)n2c-3cc3cc(-c4cnc([C@@H]5CCCN5C(=O)[C@@H](NC(=O)OC)C(C)C)[nH]4)ccc32)[nH]1)C(C)C (mixture of isomers),0.006 nM,0.002 nM,0.02 nM,5 nM,0.3 nM,0.02 nM
COCC1CC1C1Oc2cc(-c3cnc([C@@H]4CCCN4C(=O)[C@@H](NC(=O)OC)C(C)C)[nH]3)cc(F)c2-c2cc3cc(-c4cnc([C@@H]5CCCN5C(=O)[C@@H](NC(=O)OC)C(C)C)[nH]4)ccc3n21 (stereo partly drawn),0.009 nM,–,–,4 nM,0.7 nM,–
COC(=O)N[C@H](C(=O)N1CCC[C@H]1c1ncc(-c2ccc3c(c2)OC(CC2CCCC2)n2c-3cc3cc(-c4cnc([C@@H]5CCCN5C(=O)[C@@H](NC(=O)OC)C(C)C)[nH]4)ccc32)[nH]1)C(C)C (mixture of isomers),–,–,4 nM,–,–,–
COC(=O)N[C@H](C(=O)N1CCC[C@H]1c1ncc(-c2cc(F)c3c(c2)OC(C2CC2(C)C)n2c-3cc3cc(-c4cnc([C@@H]5CCCN5C(=O)[C@@H](NC(=O)OC)C(C)C)[nH]4)ccc32)[nH]1)C(C)C (stereo partly drawn),0.03 nM,–,–,–,–,–
COC(=O)CCC1Oc2cc(-c3cnc([C@@H]4CCCN4C(=O)[C@@H](NC(=O)OC)C(C)C)[nH]3)ccc2-c2cc3cc(-c4cnc([C@@H]5CCCN5C(=O)[C@@H](NC(=O)OC)C(C)C)[nH]4)ccc3n21 (mixture of isomers),0.02 nM,–,–,9 nM,4 nM,–
COC(=O)N[C@H](C(=O)N1CCC[C@H]1c1ncc(-c2ccc3c(c2)OC(CC2CC2)n2c-3cc3cc(-c4cnc([C@@H]5CCCN5C(=O)[C@@H](NC(=O)OC)C(C)C)[nH]4)ccc32)[nH]1)C(C)C (mixture of isomers),0.01 nM,0.01 nM,–,9 nM,–,–
COC(=O)N[C@H](C(=O)N1CCC[C@H]1c1ncc(-c2ccc3c(c2)OC(CC2CCCCC2)n2c-3cc3cc(-c4cnc([C@@H]5CCCN5C(=O)[C@@H](NC(=O)OC)C(C)C)[nH]4)ccc32)[nH]1)C(C)C (mixture of isomers),0.006 nM,0.002 nM,0.09 nM,–,3 nM,0.04 nM

# Results, then the compound that gave them:
EC50 [1],EC50 [2],EC50 [3],EC50 [4],EC50 [5],EC50 [6],Structure (SMILES)
0.002 nM,0.0005 nM,0.03 nM,44 nM,0.6 nM,0.04 nM,COC(=O)N[C@H](C(=O)N1CCC[C@H]1c1ncc(-c2ccc3c(c2)cc2n3C3(CCC3)Oc3cc(-c4cnc([C@@H]5C[C@@H](F)CN5C(=O)[C@@H](NC(=O)OC)C(C)C)[nH]4)cc(F)c3-2)[nH]1)C(C)C
0.002 nM,0.002 nM,0.01 nM,6 nM,0.8 nM,0.02 nM,COC(=O)N[C@H](C(=O)N1CCC[C@H]1c1ncc(-c2ccc3c(c2)OC(C(C)C)n2c-3cc3cc(-c4cnc([C@@H]5CCCN5C(=O)[C@@H](NC(=O)OC)C(C)C)[nH]4)ccc32)[nH]1)C(C)C (stereo partly drawn)
0.005 nM,0.002 nM,0.003 nM,1 nM,0.8 nM,0.04 nM,COC(=O)N[C@H](C(=O)N1CCC[C@H]1c1ncc(-c2ccc3c(c2)OC(C2CCCCC2)n2c-3cc3cc(-c4cnc([C@@H]5CCCN5C(=O)[C@@H](NC(=O)OC)C(C)C)[nH]4)ccc32)[nH]1)C(C)C (stereo partly drawn)
0.005 nM,–,–,4 nM,0.03 nM,–,COC(=O)N[C@H](C(=O)N1CCC[C@H]1c1ncc(-c2cc(F)c3c(c2)OC([C@H]2C[C@@H]2c2ccccc2)n2c-3cc3cc(-c4cnc([C@@H]5CCCN5C(=O)[C@@H](NC(=O)OC)C(C)C)[nH]4)ccc32)[nH]1)C(C)C (stereo partly drawn)
0.005 nM,–,–,8 nM,0.06 nM,–,COC(=O)N[C@H](C(=O)N1CCC[C@H]1c1ncc(-c2cc(F)c3c(c2)OC(C2CC2C#N)n2c-3cc3cc(-c4cnc([C@@H]5CCCN5C(=O)[C@@H](NC(=O)OC)C(C)C)[nH]4)ccc32)[nH]1)C(C)C (stereo partly drawn)
0.002 nM,0.002 nM,0.007 nM,4 nM,0.2 nM,0.005 nM,CCCCC1Oc2cc(-c3cnc([C@@H]4CCCN4C(=O)[C@@H](NC(=O)OC)C(C)C)[nH]3)ccc2-c2cc3cc(-c4cnc([C@@H]5CCCN5C(=O)[C@@H](NC(=O)OC)C(C)C)[nH]4)ccc3n21 (stereo partly drawn)
0.002 nM,0.003 nM,0.07 nM,2 nM,0.3 nM,0.005 nM,COC(=O)N[C@H](C(=O)N1CCC[C@H]1c1ncc(-c2ccc3c(c2)OC(C2CCCC2)n2c-3cc3cc(-c4cnc([C@@H]5CCCN5C(=O)[C@@H](NC(=O)OC)C(C)C)[nH]4)ccc32)[nH]1)C(C)C (stereo partly drawn)
0.003 nM,0.002 nM,0.003 nM,3 nM,0.3 nM,0.02 nM,CCCC1Oc2cc(-c3cnc([C@@H]4CCCN4C(=O)[C@@H](NC(=O)OC)C(C)C)[nH]3)ccc2-c2cc3cc(-c4cnc([C@@H]5CCCN5C(=O)[C@@H](NC(=O)OC)C(C)C)[nH]4)ccc3n21 (stereo partly drawn)
0.005 nM,0.002 nM,0.004 nM,59 nM,3 nM,0.04 nM,COC(=O)N[C@H](C(=O)N1CCC[C@H]1c1ncc(-c2ccc3c(c2)cc2n3C3(CCCC3)Oc3cc(-c4cnc([C@@H]5C[C@@H](F)CN5C(=O)[C@@H](NC(=O)OC)C(C)C)[nH]4)cc(F)c3-2)[nH]1)C(C)C
0.002 nM,0.0008 nM,0.007 nM,4 nM,0.8 nM,0.07 nM,COC(=O)N[C@H](C(=O)N1CCC[C@H]1c1ncc(-c2ccc3c(c2)OC(C2CCC(F)(F)CC2)n2c-3cc3cc(-c4cnc([C@@H]5CCCN5C(=O)[C@@H](NC(=O)OC)C(C)C)[nH]4)ccc32)[nH]1)C(C)C (mixture of isomers)
